Experimental data taken from ChEMBL document CHEMBL1201861, “Genomics of Drug Sensitity in Cancer screening data, Wellcome Trust Sanger Institute”.

Key:
Experiment in all cases: cells
CP50-MEL-B = format: functional, cell-based; conditions: Homo sapiens;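 note: growth inhibition of the human cell line, measured with a cell viability read-out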
Description: SANGER: Inhibition of human CP50-MEL-B cell growth in a cell viability assay.

CW-2 = format: functional, cell-based, Homo sapiens; conditions: Homo sapiens, CW-2;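 note: growth inhibition of CW-2 cells, read out by a cell viability assay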
Description: SANGER: Inhibition of human CW-2 cell growth in a cell viability assay.

Calu-6 = format: functional, cell-based, Homo sapiens; conditions: Homo sapiens, Calu-6;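 note: growth of human Calu-6 cells, read out by a cell viability assay, IC50 marking inhibition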
Description: SANGER: Inhibition of human Calu-6 cell growth in a cell viability assay.

EW-11 = format: functional, cell-based, Homo sapiens; conditions: Homo sapiens, EW-11;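 note: growth inhibition of human EW-11 cells, measured with a cell viability assay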
Description: SANGER: Inhibition of human EW-11 cell growth in a cell viability assay.

GB-1 = format: functional, cell-based, Homo sapiens; conditions: Homo sapiens, GB-1;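 note: growth of GB-1 cells judged by a viability assay, IC50 marks the concentration inhibiting growth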
Description: SANGER: Inhibition of human GB-1 cell growth in a cell viability assay.

GCIY = format: functional, cell-based, Homo sapiens; conditions: Homo sapiens, GCIY;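 note: growth inhibition of the human GCIY cell line, read out by a cell viability assay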
Description: SANGER: Inhibition of human GCIY cell growth in a cell viability assay.

GT3TKB = format: functional, cell-based, Homo sapiens; conditions: Homo sapiens, GT3TKB;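 note: growth inhibition of the cell line, read out with a cell viability assay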
Description: SANGER: Inhibition of human GT3TKB cell growth in a cell viability assay.

HDLM-2 = format: functional, cell-based, Homo sapiens; conditions: Homo sapiens, HDLM-2;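 note: cell viability assay measuring suppression of HDLM-2 proliferation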
Description: SANGER: Inhibition of human HDLM-2 cell growth in a cell viability assay.

HOP-62 = format: functional, cell-based, Homo sapiens; conditions: Homo sapiens, HOP-62;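 note: cell growth inhibition determined with a viability assay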
Description: SANGER: Inhibition of human HOP-62 cell growth in a cell viability assay.

HT = format: functional, cell-based, Homo sapiens; conditions: Homo sapiens, HT
Description: SANGER: Inhibition of human HT cell growth in a cell viability assay.

JVM-3 = format: functional, cell-based, Homo sapiens; conditions: Homo sapiens, JVM-3;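 note: growth inhibition of human JVM-3 cells, read out with a cell viability assay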
Description: SANGER: Inhibition of human JVM-3 cell growth in a cell viability assay.

KARPAS-299 = format: functional, cell-based, Homo sapiens; conditions: Homo sapiens, KARPAS-299
Description: SANGER: Inhibition of human KARPAS-299 cell growth in a cell viability assay.

KINGS-1 = format: functional, cell-based, Homo sapiens; conditions: Homo sapiens, KINGS-1;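 note: cell viability assay measuring suppression of KINGS-1 cell growth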
Description: SANGER: Inhibition of human KINGS-1 cell growth in a cell viability assay.

KNS-81-FD = format: functional, cell-based, Homo sapiens; conditions: Homo sapiens, KNS-81-FD;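 note: growth inhibition of KNS-81-FD cells, read out with a cell viability assay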
Description: SANGER: Inhibition of human KNS-81-FD cell growth in a cell viability assay.

KY821 = format: functional, cell-based, Homo sapiens; conditions: Homo sapiens, KY821;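 note: growth inhibition of human KY821 cells, read out by a cell viability assay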
Description: SANGER: Inhibition of human KY821 cell growth in a cell viability assay.

LB1047-RCC = format: functional, cell-based, Homo sapiens; conditions: Homo sapiens, LB1047-RCC;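 note: inhibition of cell growth, determined with a cell viability assay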
Description: SANGER: Inhibition of human LB1047-RCC cell growth in a cell viability assay.

LB2241-RCC = format: functional, cell-based, Homo sapiens; conditions: Homo sapiens, LB2241-RCC;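 note: cell viability assay measuring how strongly the cultured human renal carcinoma line is prevented from growing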
Description: SANGER: Inhibition of human LB2241-RCC cell growth in a cell viability assay.

LB2518-MEL = format: functional, cell-based; conditions: Homo sapiens;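 note: growth inhibition of human LB2518-MEL cells, measured with a cell viability assay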
Description: SANGER: Inhibition of human LB2518-MEL cell growth in a cell viability assay.

LC-2-ad = format: functional, cell-based, Homo sapiens; conditions: Homo sapiens, LC-2-ad;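 note: growth inhibition of human LC-2-ad cells, read out with a cell viability assay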
Description: SANGER: Inhibition of human LC-2-ad cell growth in a cell viability assay.

LS-123 = format: functional, cell-based, Homo sapiens; conditions: Homo sapiens, LS-123
Description: SANGER: Inhibition of human LS-123 cell growth in a cell viability assay.

LU-134-A = format: functional, cell-based, Homo sapiens; conditions: Homo sapiens, LU-134-A
Description: SANGER: Inhibition of human LU-134-A cell growth in a cell viability assay.

MEG-01 = format: functional, cell-based, Homo sapiens; conditions: Homo sapiens, MEG-01;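 note: growth inhibition of MEG-01 cells, read out by a cell viability assay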
Description: SANGER: Inhibition of human MEG-01 cell growth in a cell viability assay.

MHH-NB-11 = format: functional, cell-based, Homo sapiens; conditions: Homo sapiens, MHH-NB-11;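 note: growth inhibition of human MHH-NB-11 cells, read out by a cell viability assay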
Description: SANGER: Inhibition of human MHH-NB-11 cell growth in a cell viability assay.

MHH-PREB-1 = format: functional, cell-based, Homo sapiens; conditions: Homo sapiens, MHH-PREB-1;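 note: cell viability assay measuring inhibition of proliferation of human MHH-PREB-1 cells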
Description: SANGER: Inhibition of human MHH-PREB-1 cell growth in a cell viability assay.

MS-1 = format: functional, cell-based, Homo sapiens; conditions: Homo sapiens, MS-1;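 note: growth inhibition of MS-1 cells, read out by cell viability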
Description: SANGER: Inhibition of human MS-1 cell growth in a cell viability assay.

MV4-11 = format: functional, cell-based, Homo sapiens, MV-4-11; conditions: Homo sapiens, MV4-11;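 note: cell viability readout measuring growth inhibition of human MV-4-11 cells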
Description: SANGER: Inhibition of human MV-4-11 cell growth in a cell viability assay.

NB6 = format: functional, cell-based, Homo sapiens; conditions: Homo sapiens, NB6;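 note: growth inhibition of NB6 cells, read out by a cell viability assay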
Description: SANGER: Inhibition of human NB6 cell growth in a cell viability assay.

NCI-H1299 = format: functional, cell-based; conditions: Homo sapiens;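 note: growth inhibition of human NCI-H1299 cells, read out by a cell viability assay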
Description: SANGER: Inhibition of human NCI-H1299 cell growth in a cell viability assay.

NCI-H1355 = format: functional, cell-based, Homo sapiens; conditions: Homo sapiens, NCI-H1355;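 note: growth inhibition of human NCI-H1355 cells, read out by a cell viability assay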
Description: SANGER: Inhibition of human NCI-H1355 cell growth in a cell viability assay.

NCI-H1395 = format: functional, cell-based, Homo sapiens; conditions: Homo sapiens, NCI-H1395;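 note: cell viability assay read-out quantifying reduced proliferation of human NCI-H1395 cells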
Description: SANGER: Inhibition of human NCI-H1395 cell growth in a cell viability assay.

NCI-H209 = format: functional, cell-based, Homo sapiens; conditions: Homo sapiens, NCI-H209;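 note: growth inhibition of human NCI-H209 cells, measured by a cell viability assay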
Description: SANGER: Inhibition of human NCI-H209 cell growth in a cell viability assay.

NCI-H747 = format: functional, cell-based, Homo sapiens; conditions: Homo sapiens, NCI-H747;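 note: growth inhibition of human NCI-H747 cells, read out by a cell viability assay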
Description: SANGER: Inhibition of human NCI-H747 cell growth in a cell viability assay.

NTERA-2-cl-D1 = format: functional, cell-based, Homo sapiens; conditions: Homo sapiens, NTERA-2-cl-D1;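 note: inhibition of cell growth, measured with a cell viability assay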
Description: SANGER: Inhibition of human NTERA-S-cl-D1 cell growth in a cell viability assay.

OCI-AML2 = format: functional, cell-based, Homo sapiens; conditions: Homo sapiens, OCI-AML2;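 note: growth inhibition of OCI-AML2 cells, read out with a cell viability assay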
Description: SANGER: Inhibition of human OCI-AML2 cell growth in a cell viability assay.

OCUB-M = format: functional, cell-based; conditions: Homo sapiens;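 note: growth inhibition of the cancer cell line, read out through a cell viability assay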
Description: SANGER: Inhibition of human OCUB-M cell growth in a cell viability assay.

OS-RC-2 = format: functional, cell-based, Homo sapiens; conditions: Homo sapiens, OS-RC-2;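 note: growth inhibition of human OS-RC-2 cells, measured by a cell viability assay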
Description: SANGER: Inhibition of human OS-RC-2 cell growth in a cell viability assay.

SK-MEL-2 = format: functional, cell-based, Homo sapiens; conditions: Homo sapiens, SK-MEL-2;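 note: growth inhibition of human SK-MEL-2 cells measured with a cell viability assay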
Description: SANGER: Inhibition of human SK-MEL-2 cell growth in a cell viability assay.

SNB-75 = format: functional, cell-based, Homo sapiens; conditions: Homo sapiens, SNB-75;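 note: cell viability assay measuring growth inhibition of human SNB-75 cells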
Description: SANGER: Inhibition of human SNB75 cell growth in a cell viability assay.

SW 954 = format: functional, cell-based, Homo sapiens; conditions: Homo sapiens, SW 954;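 note: growth inhibition of SW954 human cancer cells, read out as cell viability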
Description: SANGER: Inhibition of human SW954 cell growth in a cell viability assay.

8-MG-BA = format: functional, cell-based, Homo sapiens; conditions: Homo sapiens, 8-MG-BA;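 note: growth inhibition of 8-MG-BA cells, read out with a cell viability assay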
Description: SANGER: Inhibition of human 8-MG-BA cell growth in a cell viability assay.

A3-KAW = format: functional, cell-based, Homo sapiens; conditions: Homo sapiens, A3-KAW;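 note: growth inhibition of human A3-KAW cells, read out with a cell viability assay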
Description: SANGER: Inhibition of human A3-KAW cell growth in a cell viability assay.

A4-Fuk = format: functional, cell-based, Homo sapiens; conditions: Homo sapiens, A4-Fuk;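 note: growth inhibition of A4-Fuk cells, read out by a cell viability assay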
Description: SANGER: Inhibition of human A4-Fuk cell growth in a cell viability assay.

AU565 = format: functional, cell-based; conditions: Homo sapiens;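 note: cell viability assay measuring growth inhibition of human AU565 cells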
Description: SANGER: Inhibition of human AU565 cell growth in a cell viability assay.

BB30-HNC = format: functional, cell-based, Homo sapiens; conditions: Homo sapiens, BB30-HNC;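 note: growth inhibition of the cultured cell line, read out by a cell viability assay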
Description: SANGER: Inhibition of human BB30-HNC cell growth in a cell viability assay.

BB65-RCC = format: functional, cell-based, Homo sapiens; conditions: Homo sapiens, BB65-RCC;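 note: growth inhibition of the cell line, measured with a cell viability assay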
Description: SANGER: Inhibition of human BB65-RCC cell growth in a cell viability assay.

BFTC-905 = format: functional, cell-based; conditions: Homo sapiens
Description: SANGER: Inhibition of human BFTC-905 cell growth in a cell viability assay.

TE-10 = format: functional, cell-based, Homo sapiens; conditions: Homo sapiens, TE-10;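 note: growth inhibition of TE-10 cells, measured by a cell viability assay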
Description: SANGER: Inhibition of human TE-10 cell growth in a cell viability assay.

TE-12 = format: functional, cell-based, Homo sapiens; conditions: Homo sapiens, TE-12;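 note: growth inhibition of TE-12 cells, read out by a cell viability assay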
Description: SANGER: Inhibition of human TE-12 cell growth in a cell viability assay.

no-11 = format: functional, cell-based, Homo sapiens; conditions: Homo sapiens;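 note: growth inhibition of human NO-11 cells, read out with a cell viability assay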
Description: SANGER: Inhibition of human no-11 cell growth in a cell viability assay.

COLO-668 = format: functional, cell-based, Homo sapiens; conditions: Homo sapiens, COLO-668
Description: SANGER: Inhibition of human COLO-668 cell growth in a cell viability assay.

`NC(=O)c1ccc(N(C(N)=O)c2c(F)cccc2F)nc1-c1ccc(F)cc1F` [VX-702] was tested, and the IC50 (CP50-MEL-B) was > 2 µM, the IC50 (CW-2) was > 2 µM and the IC50 (Calu-6) was > 2 µM. The IC50 (EW-11) was > 2 µM, the IC50 (GB-1) was > 2 µM and the IC50 (GCIY) was > 2 µM. The IC50 (GT3TKB) was > 2 µM, the IC50 (HDLM-2) was > 2 µM and the IC50 (HOP-62) was 0.0154 µM. The IC50 (HT) was > 2 µM, the IC50 (JVM-3) was > 2 µM and the IC50 (KARPAS-299) was > 2 µM. The IC50 (KINGS-1) was > 2 µM, the IC50 (KNS-81-FD) was > 2 µM and the IC50 (KY821) was 0.396 µM. For the same compound, the IC50 (LB1047-RCC) was > 2 µM, the IC50 (LB2241-RCC) was > 2 µM and the IC50 (LB2518-MEL) was > 2 µM. For the same compound, the IC50 (LC-2-ad) was > 2 µM, the IC50 (LS-123) was > 2 µM and the IC50 (LU-134-A) was > 2 µM. The IC50 (MEG-01) was > 2 µM, the IC50 (MHH-NB-11) was > 2 µM and the IC50 (MHH-PREB-1) was > 2 µM. The IC50 (MS-1) was > 2 µM, the IC50 (MV4-11) was > 2 µM and the IC50 (NB6) was > 2 µM. The IC50 (NCI-H1299) was > 2 µM, the IC50 (NCI-H1355) was > 2 µM and the IC50 (NCI-H1395) was > 2 µM. For the same compound, the IC50 (NCI-H209) was 0.176 µM, the IC50 (NCI-H747) was > 2 µM and the IC50 (NTERA-2-cl-D1) was > 2 µM. For the same compound, the IC50 (OCI-AML2) was > 2 µM, the IC50 (OCUB-M) was > 2 µM and the IC50 (OS-RC-2) was > 2 µM. For the same compound, the IC50 (SK-MEL-2) was > 2 µM, the IC50 (SNB-75) was > 2 µM and the IC50 (SW 954) was > 2 µM. The IC50 (8-MG-BA) was > 2 µM, the IC50 (A3-KAW) was > 2 µM and the IC50 (A4-Fuk) was > 2 µM. The IC50 (AU565) was > 2 µM, the IC50 (BB30-HNC) was > 2 µM and the IC50 (BB65-RCC) was > 2 µM. For the same compound, the IC50 (BFTC-905) was > 2 µM, the IC50 (TE-10) was > 2 µM and the IC50 (TE-12) was > 2 µM. For the same compound, the IC50 (no-11) was > 2 µM and the IC50 (COLO-668) was > 2 µM.
For `COc1ccc(-c2cc3nccn3c(Nc3ncccc3C(N)=O)n2)cc1OC`, the IC50 (CP50-MEL-B) was > 8 µM, the IC50 (CW-2) was > 8 µM and the IC50 (Calu-6) was 6.87 µM. The IC50 (EW-11) was > 8 µM, the IC50 (GB-1) was 2.83 µM and the IC50 (GCIY) was > 8 µM. For the same compound, the IC50 (GT3TKB) was > 8 µM, the IC50 (HDLM-2) was > 8 µM and the IC50 (HOP-62) was 1.75 µM. The IC50 (HT) was 6.22 µM, the IC50 (JVM-3) was > 8 µM and the IC50 (KARPAS-299) was > 8 µM. The IC50 (KINGS-1) was > 8 µM, the IC50 (KNS-81-FD) was > 8 µM and the IC50 (KY821) was > 8 µM. The IC50 (LB1047-RCC) was 0.741 µM, the IC50 (LB2241-RCC) was 4.93 µM and the IC50 (LB2518-MEL) was > 8 µM. The IC50 (LC-2-ad) was 1.82 µM, the IC50 (LS-123) was > 8 µM and the IC50 (LU-134-A) was 4.32 µM. The IC50 (MEG-01) was 5.28 µM, the IC50 (MHH-NB-11) was > 8 µM and the IC50 (MHH-PREB-1) was 2.55 µM. The IC50 (MS-1) was 7.7 µM, the IC50 (MV4-11) was < 0.0312 µM and the IC50 (NB6) was > 8 µM. For the same compound, the IC50 (NCI-H1299) was > 8 µM, the IC50 (NCI-H1355) was 3.49 µM and the IC50 (NCI-H1395) was > 8 µM. The IC50 (NCI-H209) was > 8 µM, the IC50 (NCI-H747) was > 8 µM and the IC50 (NTERA-2-cl-D1) was 1.96 µM. For the same compound, the IC50 (OCI-AML2) was 4.48 µM, the IC50 (OCUB-M) was 4.11 µM and the IC50 (OS-RC-2) was 1.17 µM. The IC50 (SK-MEL-2) was 1.89 µM, the IC50 (SNB-75) was > 8 µM and the IC50 (SW 954) was > 8 µM. The IC50 (8-MG-BA) was > 8 µM, the IC50 (A3-KAW) was 0.74 µM and the IC50 (A4-Fuk) was 1.81 µM. For the same compound, the IC50 (AU565) was 7.15 µM, the IC50 (BB30-HNC) was 2.82 µM and the IC50 (BB65-RCC) was 5.13 µM. For the same compound, the IC50 (BFTC-905) was 2.29 µM, the IC50 (TE-10) was 1.76 µM and the IC50 (TE-12) was 0.531 µM. For the same compound, the IC50 (no-11) was > 8 µM and the IC50 (COLO-668) was > 8 µM.
For `CN(NC(=O)CC(=O)NN(C)C(=S)c1ccccc1)C(=S)c1ccccc1` [ELESCLOMOL], the IC50 (CP50-MEL-B) was 0.00863 µM, the IC50 (CW-2) was > 0.2 µM and the IC50 (Calu-6) was > 0.2 µM. For the same compound, the IC50 (EW-11) was 0.0049 µM, the IC50 (GB-1) was 0.00671 µM and the IC50 (GCIY) was > 0.2 µM. For the same compound, the IC50 (GT3TKB) was 0.016 µM, the IC50 (HDLM-2) was > 0.2 µM and the IC50 (HOP-62) was 0.122 µM. For the same compound, the IC50 (HT) was > 0.2 µM, the IC50 (JVM-3) was > 0.2 µM and the IC50 (KARPAS-299) was 0.0374 µM. The IC50 (KINGS-1) was 0.177 µM, the IC50 (KNS-81-FD) was 0.0175 µM and the IC50 (KY821) was > 0.2 µM. It also gave an IC50 (LB1047-RCC) of 0.0107 µM, an IC50 (LB2241-RCC) of 0.0564 µM and an IC50 (LB2518-MEL) of 0.0669 µM. The IC50 (LC-2-ad) was 0.0278 µM, the IC50 (LS-123) was 0.0485 µM and the IC50 (LU-134-A) was > 0.2 µM. The IC50 (MEG-01) was 0.105 µM, the IC50 (MHH-NB-11) was 0.0691 µM and the IC50 (MHH-PREB-1) was 0.0115 µM. It also gave an IC50 (MS-1) of 0.166 µM, an IC50 (MV4-11) of 0.018 µM and an IC50 (NB6) of 0.142 µM. It also gave an IC50 (NCI-H1299) of 0.0185 µM, an IC50 (NCI-H1355) of 0.00889 µM and an IC50 (NCI-H1395) of 0.0136 µM. For the same compound, the IC50 (NCI-H209) was > 0.2 µM, the IC50 (NCI-H747) was 0.0574 µM and the IC50 (NTERA-2-cl-D1) was 0.0194 µM. The IC50 (OCI-AML2) was 0.136 µM, the IC50 (OCUB-M) was 0.195 µM and the IC50 (OS-RC-2) was 0.0477 µM. For the same compound, the IC50 (SK-MEL-2) was 0.0732 µM, the IC50 (SNB-75) was 0.105 µM and the IC50 (SW 954) was 0.0142 µM. It also gave an IC50 (8-MG-BA) of 0.00914 µM, an IC50 (A3-KAW) of 0.0865 µM and an IC50 (A4-Fuk) of 0.108 µM. It also gave an IC50 (AU565) of 0.0591 µM, an IC50 (BB30-HNC) of 0.0353 µM and an IC50 (BB65-RCC) of 0.0242 µM. For the same compound, the IC50 (BFTC-905) was 0.0205 µM, the IC50 (TE-10) was > 0.2 µM and the IC50 (TE-12) was > 0.2 µM. The IC50 (no-11) was 0.0233 µM and the IC50 (COLO-668) was > 0.2 µM.
